# Results published in ChEMBL document CHEMBL5576104, “Design, synthesis, and anti-melanogenic efficacy of 2-mercaptobenzoxazoles with nanomolar tyrosinase activity inhibition” (Bioorg Med Chem, 2024).
# Activity calls are given as the source filed them. The calls are words filed in the database; no cut-off is given here.
# What was measured:
# [1] = test system: B16-F10; assay: Cytotoxicity against mouse B16-F10 cells assessed as reduction in cell viability at <=20 uM incubated for 72 hrs by EZ-Cytox assay; format: toxicity, cell-based; details: b16-f10, 72 h
# [2] = Antioxidant activity assessed as ABTS radical scavenging activity at 100 uM preincubated under dark condition for 2 mins and measured every 1 min for 10 mins by absorbance based microplate reader analysis relative to control; format: functional; details: time 12.0 min
# [3] = molecular target: T1, Mushroom tyrosinase (Agaricus bisporus, UniProt O42713+Q00024+C7FF04+C7FF05); assay: Inhibition of mushroom tyrosinase using L-tyrosine as substrate incubated for 30 mins by absorbance based microplate reader analysis; format: protein assay
# [4] = test system: HaCaT; assay: Cytotoxicity against human HaCaT cells assessed as reduction in cell viability at 5 to 20 uM incubated for 24 hrs by EZ-Cytox assay; format: toxicity, cell-based; details: dose 5-20 µM
# [5] = molecular target: T1, Mushroom tyrosinase; assay: Inhibition of mushroom tyrosinase using L-DOPA as substrate incubated for 30 mins by absorbance based microplate reader analysis; format: protein assay
# [6] = molecular target: T2, Tyrosinase (Mus musculus) (UniProt P11344); assay: Inhibition of tyrosinase activity in IBMX/[…] stimulated mouse B16-F10 cells preincubated for 1 hr followed by IBMX/[…] addition and measured after 72 hrs by microplate reader assay; format: cell-based; details: dose 5-20 µM, time 73.0 hrs
# T2 sequence (whole entry): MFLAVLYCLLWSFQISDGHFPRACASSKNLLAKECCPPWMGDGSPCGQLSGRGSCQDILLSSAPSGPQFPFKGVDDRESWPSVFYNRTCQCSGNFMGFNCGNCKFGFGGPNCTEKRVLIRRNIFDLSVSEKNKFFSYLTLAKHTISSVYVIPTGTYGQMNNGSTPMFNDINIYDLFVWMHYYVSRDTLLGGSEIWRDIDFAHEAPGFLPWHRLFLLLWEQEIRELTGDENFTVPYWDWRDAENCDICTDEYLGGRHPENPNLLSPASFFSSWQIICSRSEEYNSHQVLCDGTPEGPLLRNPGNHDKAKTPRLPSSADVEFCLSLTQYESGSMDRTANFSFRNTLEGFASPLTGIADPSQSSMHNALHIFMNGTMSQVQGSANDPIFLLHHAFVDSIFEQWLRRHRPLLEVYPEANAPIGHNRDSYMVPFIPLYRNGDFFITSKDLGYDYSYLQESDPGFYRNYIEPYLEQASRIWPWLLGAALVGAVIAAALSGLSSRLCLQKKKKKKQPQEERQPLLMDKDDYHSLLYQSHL
# [7] = test system: B16-F10; assay: Antimelanogenic activity against IBMX/[…] stimulated mouse B16-F10 cells assessed as reduction in intracellular melanin content preincubated for 1 hr followed by IBMX/[…] addition and measured after 72 hrs by microplate reader analysis; format: functional, cell-based; details: dose 5-20 µM, time 73.0 hrs
# [8] = molecular target: T3, Mushroom tyrosinase (Agaricus bisporus) (UniProt O42713+Q00024+C7FF04+C7FF05); assay: Mixed-type inhibition of mushroom tyrosinase using L-DOPA as substrate assessed as decrease in Vmax with increase in Km upto 1.8 uM using varying concentrations of substrate by Lineweaver-Burk plot analysis; format: protein assay
# [9] = molecular target: T1, Mushroom tyrosinase; assay: Binding affinity to mushroom tyrosinase using L-DOPA as substrate assessed as inhibition constant by Dixon plot analysis; format: protein assay
# [10] = molecular target: T3, Mushroom tyrosinase (Agaricus bisporus); assay: Potency index, ratio of phenylthiourea IC50 to test compound IC50 for inhibition of mushroom tyrosinase using L-tyrosine as substrate incubated for 30 mins by absorbance based microplate reader analysis; format: protein assay
# [11] = molecular target: T3, Mushroom tyrosinase (Agaricus bisporus); assay: Inhibition of mushroom tyrosinase using L-DOPA as substrate at 500 nM incubated for 30 mins in presence of CuSO4 by absorbance based microplate reader analysis relative to control; format: protein assay
# [12] = molecular target: T3, Mushroom tyrosinase (Agaricus bisporus); assay: Inhibition of mushroom tyrosinase using L-DOPA as substrate at 500 nM incubated for 30 mins by absorbance based microplate reader analysis relative to control; format: protein assay
# [13] = molecular target: T3, Mushroom tyrosinase (Agaricus bisporus); assay: Competitive inhibition of mushroom tyrosinase using L-DOPA as substrate assessed as increase in Km with constant Vmax upto 0.2 uM using varying concentrations of substrate by Lineweaver-Burk plot analysis; format: protein assay
# [14] = molecular target: T3, Mushroom tyrosinase (Agaricus bisporus); assay: Potency index, ratio of kojic acid IC50 to test compound IC50 for inhibition of mushroom tyrosinase using L-DOPA as substrate incubated for 30 mins by absorbance based microplate reader analysis; format: protein assay
# [15] = Cytotoxicity against human HaCaT cells assessed as cell viability at 20 uM incubated for 24 hrs by EZ-Cytox assay relative to control; format: toxicity, cell-based; details: read-out: Activity
# [16] = Cytotoxicity against human HaCaT cells assessed as cell viability at 5 uM incubated for 24 hrs by EZ-Cytox assay relative to control; format: toxicity, cell-based; details: read-out: Activity
# [17] = Cytotoxicity against human HaCaT cells assessed as cell viability at 10 uM incubated for 24 hrs by EZ-Cytox assay relative to control; format: toxicity, cell-based; details: read-out: Activity
# [18] = molecular target: T3, Mushroom tyrosinase (Agaricus bisporus); assay: Mixed-type inhibition of mushroom tyrosinase using L-DOPA as substrate assessed as decrease in Vmax with increase in Km upto 0.2 uM using varying concentrations of substrate by Lineweaver-Burk plot analysis; format: protein assay
# [19] = molecular target: T3, Mushroom tyrosinase (Agaricus bisporus); assay: Potency index, ratio of phenylthiourea IC50 to test compound IC50 for inhibition of mushroom tyrosinase; format: protein assay
SMILES,Activity [1],Activity [2],IC50 [3],Activity [4],IC50 [5],inhibition [6],Activity [7],inhibition [8],Ki [9],Ratio IC50 [10],inhibition [11],inhibition [12],inhibition [13],Ratio IC50 [14],"viability at 24 h, 20 µM [15]","viability at 24 h, 5 µM [16]","viability at 24 h, 10 µM [17]",inhibition [18],Ratio IC50 [19]
S=c1[nH]c2ccc(Cl)cc2o1,Non-Toxic,49%,2.02 µM,Non-Toxic,6.25 µM,,,,,,,,,,,,,,
O=[N+]([O-])c1ccc2nc(S)oc2c1,Non-Toxic,49%,12.25 µM,Non-Toxic,13.76 µM,Dose-Dependent Effect,Dose-Dependent Effect,,,,,,,,,,,,
Cc1ccc2oc(=S)[nH]c2c1,Non-Toxic,49%,0.1 µM,Non-Toxic,0.09 µM,,,Active,0.142 µM,3,26%,> 92%,,,,,,,
Sc1nc2ccccc2o1,Non-Toxic,49%,0.24 µM,Non-Toxic,0.08 µM,,,,0.058 µM,,26%,> 92%,Active,440,,,,,
Cc1c(C)c2c(c(C)c1O)CCC(C)(C(=O)O)O2 (stereo not given),,49%,,,,,,,,,,,,,,,,,
O=[N+]([O-])c1ccc2oc(=S)[nH]c2c1,Non-Toxic,49%,2.41 µM,,5.81 µM,,,,,,,,,,84%,91%,91%,,
O=[N+]([O-])c1cccc2oc(S)nc12,Non-Toxic,34%,14.8 µM,,23.84 µM,,,,,,,,,,94%,,,,
Cc1cccc2oc(S)nc12,Non-Toxic,49%,2.85 µM,Non-Toxic,2.15 µM,Dose-Dependent Effect,Dose-Dependent Effect,,,,,,,16,,,,,
Cc1ccc2[nH]c(=S)oc2c1,Non-Toxic,49%,0.13 µM,Non-Toxic,0.08 µM,Dose-Dependent Effect,Dose-Dependent Effect,,0.098 µM,,26%,> 92%,,,,,,Active,2
